According to publication PMC12562379, “Facile Synthesis of N-vinylindoles via Knoevenagel Condensation: Molecular Features and Biological Activities” (International Journal of Molecular Sciences, 2025):
≈ marks a conversion by molar mass, not a printed value. Where two headings read alike, the source gives them in different places.

Assays:
HaCaT = test: MTT assay, cytotoxic activity on non-cancerous keratinocytes; format: cell-based; conditions: Homo sapiens, 24 h, n = 12
Description: (§1) The human ovarian SKOV-3, gastric adenocarcinoma AGS, cervical HeLa cell lines and non-cancerous keratinocytes HaCaT were obtained from the American Type Culture Collection (ATCC, Manassas, VA, USA). The cell lines were cultured in McCoy’s Medium, Dulbecco’s Modified Eagle’s Medium/F12, and DMEM, respectively (Merck Millipore, Burlington, MA, USA). Penicillin (100 units/mL), streptomycin ([…]), and 10% (v/v) fetal bovine serum (FBS) were added to all the media. The cells were incubated at 37 °C and 5% CO2.
(§2) To estimate the cytotoxic activity of the obtained compounds 2a-i, MTT assay was used. The cells (5 × 10^3 cells/well) were treated with the compounds in a range of concentrations 1–150 µg/mL. […] After 24 h, MTT solution (0.5 mg/mL) was added to the cells. Formazan crystals were dissolved in DMSO and the absorbance was measured with a microtiter plate reader (Epoch, BioTek Instruments, Winooski, VT, USA).

[1] = system: S. aureus ATCC 6535, S. aureus MRSA 12673 and other tested bacterial and yeast strains; test: Microbroth dilution assay, ranges stated over several strains; format: cell-based; conditions: range over S. aureus ATCC 6535 and MRSA 12673
C. glabrata ATCC 2001 = test: Microbroth dilution assay; format: cell-based, Candida glabrata; conditions: Nakaseomyces glabratus, ATCC2001
Description: (§3) The minimum inhibitory concentration (MIC) and minimum bactericidal/fungicidal concentration (MBC/MFC) of the tested compounds were determined by the microbroth dilution technique using 96-well plates based on the methodology described in the EUCAST (European Committee on Antimicrobial Susceptibility Testing) standards. Reference and clinical strains of Gram-positive (Staphylococcus aureus ATCC 6538, Staphylococuccus aureus MRSA 6347) and Gram-negative (Escherichia coli ATCC 8739) bacteria, and yeast (Candida albicans ATCC 10231, Candida glabrata ATCC 2001) were used for the assay. The studies were carried out in the Mueller–Hinton (MH) broth for bacteria and RPMI 1640 broth + MOPS (Sigma-Aldrich, Poland) buffer in the case of yeast. The dry test samples were dissolved in DMSO (dimethyl sulfoxide), resulting in a final concentration of 15 mg/mL, and then diluted in a geometric progression. Ampicillin (Sigma-Aldrich, Poland) acted as a control sample (512 to 4 µg/mL) for bacteria and ketoconazole (128 to 1 µg/mL) (Sigma-Aldrich, Poland) acted as a control sample for yeast. The cultures of microorganisms were prepared by transferring cells from the stock cultures to tubes with the appropriate broth and incubated with agitation in an aerobic atmosphere for 18 ± 2 h at 35 ± 1 °C; next, they were diluted to achieve an optical density corresponding to 5 × 105 (bacteria) or 2 × 105 (yeast) colony-forming units per mL (cfu/mL). An appropriate media (96 µL), along with the tested compounds with a final concentration range of 300–3.1 µg/mL (4 µL) and next microbial suspension (100 µL) were added to each well. Plates with samples were incubated in adequate conditions described above and microbial growth was assessed. […] (>90%; ketoconazole) but 50% (for other compounds) inhibits visible growth of yeasts. Next, as a control of microbial viability, 100 µL of the samples from each well without growth was inoculated on the MH or RPMI agar plates and incubated for 18 ± 2 h at 35 ± 1 °C and finally, the CFU was counted. The MBC/MFC was determined as the minimum concentration of compounds required to kill 99.9% the organisms.

AGS = test: MTT assay, cytotoxic activity; format: cell-based, human; conditions: Homo sapiens, 24 h, n = 12
Description: as §1, §2

HeLa = test: MTT assay, cytotoxic activity; format: cell-based, human; conditions: Homo sapiens, 24 h, n = 12
Description: as §1, §2

SKOV-3 = test: MTT assay, cytotoxic activity; format: cell-based, human; conditions: Homo sapiens, SK-OV-3; SKOV-3, MTT, 24 h, n = 12
Description: as §1, §2

[2] = target: T1, AGE2-BSA/sRAGE interaction (Homo sapiens, UniProt Q15109); test: ELISA AGE2-BSA/sRAGE inhibitory screening; format: binding
T1 construct: purchased Creative BioMart
Description: The in vitro inhibitor screening of AGE2 (glyceraldehyde-modified AGE)-sRAGE interaction (soluble RAGE) was performed using a 96-well AGE-BSA-coated plate (Creative BioMart® ELISA kit, Shirley, NY, USA), according to the manufacturer’s instructions. 100 UA/mL soluble RAGE (sRAGE) was incubated with 100 μM of the tested compounds or 0.05% DMSO as a negative control on an AGE2-BSA-coated plate at room temperature for 60 min, shaking at 300 rpm on an orbital microplate shaker. After incubation, the wells were washed 4 times with wash buffer and horseradish peroxidase (HRP)-labeled anti-RAGE antibody was added and the plate was further incubated at room temperature for 60 min, shaking at 300 rpm on an orbital microplate shaker. After incubation, the wells were washed 4 times with wash buffer and the Substrate Reagent was added to each well. After an incubation at room temperature for 5 min, the HRP-labeled antibody sRAGE-AGE complex was then detected by measuring the absorbance at 450 nm using the microplate reader Varioskan (Thermo Fischer Scientific). These experiments were repeated two times.

SKOV-3 cells = test: Caspase-3/7 assay (apoptosis, Muse Cell Analyzer); format: cell-based, human; conditions: SKOV-3, 24 h
Description: The SKOV-3 cells (5 × 10^5 cells/well) were seeded and incubated with compound 2i at concentrations of 2, 5, 10, 15, 30, and 60 µg/mL for 24 h. Then, the cells were stained with Muse Caspase-3/7 Kit, according to the manufacturer’s instructions. Muse Cell Analyzer and Muse 1.4 Analysis Software (Merck Millipore, Burlington, MA, USA) were used to calculate the amount of live, early apoptotic, late apoptotic, and dead cells. The results are shown as a percentage of the cells in each population obtained from two independently repeated experiments (in three repeats).

S. aureus MRSA 12673 = test: Microbroth dilution assay; format: cell-based; conditions: Staphylococcus aureus, S. aureus MRSA 12673
S. aureus ATCC 6535 = test: Microbroth dilution assay; format: cell-based; conditions: Staphylococcus aureus, ATCC6535
C. albicans ATCC 10231 = test: Microbroth dilution assay; format: cell-based, Candida albicans
Description: as §3

T1 sequence (Q15109 23-342 limits assumed): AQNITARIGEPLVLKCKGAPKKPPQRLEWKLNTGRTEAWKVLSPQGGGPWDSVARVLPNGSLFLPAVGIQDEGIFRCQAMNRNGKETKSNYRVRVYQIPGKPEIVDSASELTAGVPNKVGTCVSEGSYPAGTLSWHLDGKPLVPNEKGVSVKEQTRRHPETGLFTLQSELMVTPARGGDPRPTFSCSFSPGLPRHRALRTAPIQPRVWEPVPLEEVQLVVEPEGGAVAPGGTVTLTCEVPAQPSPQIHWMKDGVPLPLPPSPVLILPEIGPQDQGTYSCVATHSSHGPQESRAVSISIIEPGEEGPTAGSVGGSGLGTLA

C(=C(\C1=NCCN1)n1ccc2ccccc21)/c1ccc2ccccc2c1 [Compound 2i, (Z)-1-[1-(4,5-dihydro-1H-imidazol-2-yl)-2-(naphthalen-2-yl)vinyl]-1H-indole]
IC50 (HaCaT): 3.02 ± 0.18 µg/mL (≈ 8.95 µM) | MBC (range over strains) [1]: 30 µg/mL (≈ 88.9 µM) | MIC (range over strains) [1]: 15 to 30 µg/mL | MFC (C. glabrata ATCC 2001): 60 µg/mL (≈ 178 µM) | MIC (C. glabrata ATCC 2001): 60 µg/mL (≈ 178 µM) | IC50 (AGS): 5.68 ± 0.41 µg/mL (≈ 16.8 µM) | IC50 (HeLa): 2.03 ± 0.05 µg/mL (≈ 6.02 µM) | IC50 (SKOV-3): 2.45 ± 0.13 µg/mL (≈ 7.26 µM) | inhibition at 100 µM [2]: 49.4% | dead cells (SKOV-3 cells; 2 µg/mL): 6.07 ± 0.58% | late apoptotic cells (SKOV-3 cells; 2 µg/mL): 11.52 ± 1.53% | dead cells (SKOV-3 cells; 5 µg/mL): 7.65 ± 0.61% | late apoptotic cells (SKOV-3 cells; 5 µg/mL): 22.72 ± 1.37% | dead cells (SKOV-3 cells; 10 µg/mL): 18.11 ± 1.45% | late apoptotic cells (SKOV-3 cells; 10 µg/mL): 48.85 ± 0.39% | dead cells (SKOV-3 cells; 15 µg/mL): 31.52 ± 2.68% | late apoptotic cells (SKOV-3 cells; 15 µg/mL): 54.94 ± 3.12% | dead cells (SKOV-3 cells; 30 µg/mL): 68.95 ± 2.09% | late apoptotic cells (SKOV-3 cells; 30 µg/mL): 28.21 ± 1.61% | dead cells (SKOV-3 cells; 60 µg/mL): 66.85 ± 1.96% | late apoptotic cells (SKOV-3 cells; 60 µg/mL): 31.87 ± 2.01% | induction of apoptosis (SKOV-3 cells; from 2 µg/mL to 60 µg/mL): significantly induced apoptosis | MBC (S. aureus MRSA 12673): 30 µg/mL (≈ 88.9 µM) | MIC (S. aureus MRSA 12673; read-out: MIC): 30 µg/mL (≈ 88.9 µM) | MBC (S. aureus ATCC 6535): 30 µg/mL (≈ 88.9 µM) | MIC (S. aureus ATCC 6535): 15 µg/mL (≈ 44.5 µM) | MFC (C. albicans ATCC 10231; C. albicans ATCC 10231): 120 µg/mL (≈ 356 µM) | MIC (C. albicans ATCC 10231; C. albicans ATCC 10231): 120 µg/mL (≈ 356 µM) | MFC (C. albicans ATCC 10231; Candida albicans, ATCC10231, C. albicans ATCC 10231, read-out: MFC): 60 µg/mL (≈ 178 µM) | MIC (C. albicans ATCC 10231; Candida albicans, ATCC10231, C. albicans ATCC 10231, read-out: MIC): 60 µg/mL (≈ 178 µM)
